How the values were obtained:
[1] = Toxicity in Balb/c nude mouse allografted with mouse BaF3 cells harboring EGFR L858R/C797S mutant assessed as tolerability at 10 mg/kg, po administered twice daily for 20 days; format: organism-based; conditions: in vivo, 480 h, time 20 day
L-363 = assay: Antiproliferative activity against human L-363 cells assessed as cell growth inhibition; format: functional
D(2) dopamine receptor [2] = biological target: T1, D(2) dopamine receptor (Homo sapiens, UniProt P14416); assay: Inhibition of dopamine D2 receptor (unknown origin) at 10 uM relative to control
[3] = Cmax in CD1 mouse at 10 mg/kg, po administered as single dose measured after 24 hrs by LC-MS/MS analysis; format: ADME, organism-based; design: dose 10 mg/kg, time 24 hrs, route po; conditions: in vivo
[4] = biological target: T2, Muscarinic acetylcholine receptor M2 (Homo sapiens) (UniProt P08172); assay: Inhibition of muscarinic M2 receptor (unknown origin) at 10 uM relative to control
T2 sequence (whole entry): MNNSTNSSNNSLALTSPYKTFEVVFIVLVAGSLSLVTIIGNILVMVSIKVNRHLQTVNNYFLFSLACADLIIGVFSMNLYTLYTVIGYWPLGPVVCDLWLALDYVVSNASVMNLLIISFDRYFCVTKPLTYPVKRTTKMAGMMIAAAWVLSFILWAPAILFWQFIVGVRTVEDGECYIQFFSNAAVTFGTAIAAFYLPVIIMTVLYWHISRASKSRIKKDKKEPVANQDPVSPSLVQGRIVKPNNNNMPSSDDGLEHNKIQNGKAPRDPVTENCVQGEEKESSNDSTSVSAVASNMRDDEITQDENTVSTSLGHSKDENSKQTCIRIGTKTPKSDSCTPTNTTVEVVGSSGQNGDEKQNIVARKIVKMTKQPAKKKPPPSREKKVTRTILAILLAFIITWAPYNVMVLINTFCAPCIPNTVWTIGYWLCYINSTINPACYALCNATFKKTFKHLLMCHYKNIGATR

[5] = biological target: Epidermal growth factor receptor (Homo sapiens, UniProt P00533, C797S/L858R/T790M)
[6] = AUC(0 to t) in CD1 mouse at 10 mg/kg, po administered as single dose measured after 24 hrs by LC-MS/MS analysis; format: ADME, organism-based; design: time 24 hrs, dose 10 mg/kg, route po; conditions: in vivo
[7] = Tlast in CD1 mouse at 1 mg/kg, iv administered as single dose measured after 24 hrs by LC-MS/MS analysis; format: ADME, organism-based; conditions: in vivo
D(2) dopamine receptor [8] = biological target: T1, D(2) dopamine receptor; assay: Inhibition of dopamine D2 receptor (unknown origin)
SU-DHL-6 = assay: Antiproliferative activity against human SU-DHL-6 cells assessed as cell growth inhibition; format: functional
BaF3 [9] = assay: Antitumor activity against mouse BaF3 cells harboring EGFR L858R/C797S mutant allografted in Balb/c nude mouse assessed as in tumor growth inhibition at 10 mg/kg, po administered twice daily measured on day 20; format: functional; conditions: BaF3, 480 h, time 20 day, read-out: TGI
[10] = AUC (0 to infinity) in CD1 mouse at 1 mg/kg, iv administered as single dose measured after 24 hrs by LC-MS/MS analysis; format: ADME, organism-based; design: time 24 hrs, dose 1 mg/kg, route iv; conditions: in vivo
[11] = biological target: T3, Adenosine receptor A3 (Homo sapiens) (UniProt P0DMS8); assay: Inhibition of adenosine A3 receptor (unknown origin) at 10 uM relative to control
T3 sequence (whole entry): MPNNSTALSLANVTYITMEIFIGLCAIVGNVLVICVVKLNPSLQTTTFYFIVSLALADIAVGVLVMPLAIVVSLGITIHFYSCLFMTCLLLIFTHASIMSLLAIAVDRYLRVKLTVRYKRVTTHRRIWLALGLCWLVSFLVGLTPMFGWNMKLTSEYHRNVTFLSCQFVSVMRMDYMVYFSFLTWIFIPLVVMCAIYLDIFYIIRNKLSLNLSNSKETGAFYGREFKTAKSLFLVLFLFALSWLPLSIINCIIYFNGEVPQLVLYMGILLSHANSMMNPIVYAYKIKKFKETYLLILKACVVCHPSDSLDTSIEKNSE

[12] = Tmax in CD1 mouse at 10 mg/kg, po administered as single dose measured after 24 hrs by LC-MS/MS analysis; format: ADME, organism-based; conditions: in vivo
BaF3 [13] = assay: Cytotoxicity against mouse BaF3 cells expressing EGFR L858R/T790M/C797S mutant assessed as reduction in cell viability measured after 72 hrs by cell titre glo luminescence assay; format: functional, cell-based; conditions: BaF3, 72 h
NCI-H1975 [14] = assay: Antitumor activity against human NCI-H1975 cells harboring EGFR L858R/T790M mutant xenografted in Balb/c nude mouse assessed as in tumor growth inhibition at 10 mg/kg, po administered twice daily measured after 14 days; format: functional; conditions: NCI-H1975, 336 h, time 14 day, read-out: TGI
[15] = Volume of distribution at steady state in CD1 mouse at 1 mg/kg, iv administered as single dose measured after 24 hrs by LC-MS/MS analysis; format: ADME, organism-based; conditions: in vivo, read-out: Vdss
Adenosine receptor A3 = biological target: T4, Adenosine receptor A3 (Homo sapiens, UniProt P0DMS8); assay: Inhibition of adenosine A3 receptor (unknown origin)
T4 sequence (P0DMS8 whole entry): T3 sequence (whole entry)

[16] = Tlast in CD1 mouse at 10 mg/kg, po administered as single dose measured after 24 hrs by LC-MS/MS analysis; format: ADME, organism-based; conditions: in vivo
NCI-H1975 [17] = assay: Antitumor activity against human NCI-H1975 cells harboring EGFR L858R/T790M mutant xenografted in Balb/c nude mouse assessed as in tumor growth inhibition at 10 mg/kg, po administered once daily measured after 14 days in presence of osimertinib; format: functional; conditions: NCI-H1975, 336 h, time 14 day, read-out: TGI
[18] = Oral bioavailability in CD1 mouse at 10 mg/kg administered as single dose measured after 24 hrs by LC-MS/MS analysis; format: ADME, organism-based; conditions: in vivo
[19] = biological target: T5, Muscarinic acetylcholine receptor M2 (Homo sapiens, UniProt P08172); assay: Inhibition of muscarinic M2 receptor (unknown origin)
T5 sequence (P08172 whole entry): T2 sequence (whole entry)

T1 sequence (P14416 whole entry): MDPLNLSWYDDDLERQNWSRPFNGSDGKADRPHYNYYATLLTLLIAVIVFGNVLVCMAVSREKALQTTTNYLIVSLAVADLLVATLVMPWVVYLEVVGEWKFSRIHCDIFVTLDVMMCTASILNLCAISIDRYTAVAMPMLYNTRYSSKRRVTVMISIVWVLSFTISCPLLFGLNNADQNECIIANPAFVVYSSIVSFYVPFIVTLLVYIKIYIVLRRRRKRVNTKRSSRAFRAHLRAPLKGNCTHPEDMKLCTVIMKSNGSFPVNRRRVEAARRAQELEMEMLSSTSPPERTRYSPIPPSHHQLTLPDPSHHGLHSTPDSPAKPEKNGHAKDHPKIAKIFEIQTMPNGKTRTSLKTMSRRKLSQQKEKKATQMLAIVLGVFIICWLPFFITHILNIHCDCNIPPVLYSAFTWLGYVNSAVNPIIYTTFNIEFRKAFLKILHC
Sequence of Epidermal growth factor receptor (P00533 25-1210 T790M/C797S/L858R limits assumed): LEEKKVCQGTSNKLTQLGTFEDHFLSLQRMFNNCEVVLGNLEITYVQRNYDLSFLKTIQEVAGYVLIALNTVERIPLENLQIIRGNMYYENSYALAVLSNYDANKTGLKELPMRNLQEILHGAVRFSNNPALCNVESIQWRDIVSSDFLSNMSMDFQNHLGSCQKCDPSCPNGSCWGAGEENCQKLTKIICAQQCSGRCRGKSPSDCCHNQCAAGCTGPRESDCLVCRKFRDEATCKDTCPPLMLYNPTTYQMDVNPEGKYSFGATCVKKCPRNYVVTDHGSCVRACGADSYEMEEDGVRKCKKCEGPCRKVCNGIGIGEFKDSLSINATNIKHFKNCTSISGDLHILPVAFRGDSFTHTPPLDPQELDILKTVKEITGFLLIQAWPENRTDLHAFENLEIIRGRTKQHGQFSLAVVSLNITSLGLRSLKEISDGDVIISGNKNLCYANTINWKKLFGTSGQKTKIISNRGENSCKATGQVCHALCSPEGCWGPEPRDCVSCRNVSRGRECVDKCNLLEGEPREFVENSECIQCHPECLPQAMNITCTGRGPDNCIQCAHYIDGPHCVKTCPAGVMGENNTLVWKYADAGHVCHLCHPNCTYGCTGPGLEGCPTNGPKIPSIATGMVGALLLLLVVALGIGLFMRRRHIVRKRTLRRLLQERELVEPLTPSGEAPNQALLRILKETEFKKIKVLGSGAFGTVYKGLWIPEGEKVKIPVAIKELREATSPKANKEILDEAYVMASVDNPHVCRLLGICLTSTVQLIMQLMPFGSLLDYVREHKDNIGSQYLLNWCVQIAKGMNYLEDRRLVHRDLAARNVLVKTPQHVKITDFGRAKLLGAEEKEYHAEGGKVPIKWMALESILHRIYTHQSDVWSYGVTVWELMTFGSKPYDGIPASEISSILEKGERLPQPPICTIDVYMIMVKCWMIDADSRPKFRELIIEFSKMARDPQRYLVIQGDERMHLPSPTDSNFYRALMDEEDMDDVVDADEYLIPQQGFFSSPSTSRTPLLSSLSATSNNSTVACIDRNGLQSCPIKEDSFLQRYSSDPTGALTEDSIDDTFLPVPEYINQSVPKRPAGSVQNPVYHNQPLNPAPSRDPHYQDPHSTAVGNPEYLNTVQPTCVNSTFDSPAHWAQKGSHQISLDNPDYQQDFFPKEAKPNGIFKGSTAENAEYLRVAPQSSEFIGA

inhibition (D(2) dopamine receptor [2]): 98% | Cmax [3]: 135 ng/mL | inhibition [4]: 91% | IC50 [5]: 0.002 µM | AUC(0-t) at 24 h [6]: 1790 ng·h/mL | Tlast [7]: 24 h | IC50 (D(2) dopamine receptor [8]): 1 µM | GI50 (SU-DHL-6): 1.46 µM | AUC(0-inf) [10]: 871 ng·h/mL | inhibition [11]: 94% | Tmax [12]: 5 h | Vd [15]: 10 L/kg | IC50 (Adenosine receptor A3): 0.2 µM | Tlast [16]: 24 h | bioavailability [18]: 22% | IC50 [19]: 1.8 µM
SMILES: Cc1c(C#Cc2ccc(CN3CCC(CO)CC3)cc2)cc(C(F)F)c2cn(C(C(=O)Nc3nccs3)c3ncn4c3CCC43CC3)nc12 (configuration not stated)
Activity [1]: Non-Toxic | GI50 (L-363): 1.32 µM | inhibition in vivo at 10 mg/kg (BaF3 [9]): 70% | IC50 (BaF3 [13]): 0.001 µM | inhibition in vivo at 10 mg/kg (NCI-H1975 [14]): 69% | inhibition in vivo at 10 mg/kg (NCI-H1975 [17]): 100%
